# Where “and” joins values, the source holds several entries; their conditions need not be identical. Equal values may be shown once.
# Test system: Huh-7, ET replicon cells
# Assay: Drug combination luciferase assay (4-day, MacSynergy)
# Format: cell-based, Hepatitis C virus
# Details: combination with VX-950, 4 days
# Text: Replicon cell lines Huh-7, ET cells derived from the Huh-7 hepatocarcinoma cell line are obtained from Dr. Ralf Bartenschlager (Bartenschlager, R. Innovation: Hepatitis C virus replicons: potential role for drug development. Nat. Rev. Drug Discov. 2002, 1, 911-916. Krieger, N.; Lohmann, V.; Bartenschlager, R. Enhancement of hepatitis C virus RNA replication by cell culture-adaptive mutations. J. Virol. 2001, 75, 4614-4624. Lohmann, V.; Korner, F.; Koch, J.-O.; Herian, U.; Theilmann, L.; Bartenschlager, R. Replication of subgenomic hepatitis C virus RNAs in a hepatoma cell line. Science. 1999, 285, 110-113.) (Reblikon GmbH, Gau-Odernheim, Germany). […]
# Huh-7, ET replicon cells are seeded in white opaque 96-well cell culture microtiter plates at sub-confluent density (3×10^3 cells per well) in a volume of 100 μL media. […] Plates are read for Luciferase counts using a luminometer (Wallac MicroBeta Trilux, Perkin Elmer™, MA, USA). […]
smiles,measurement,setting,value
"CC1CCC(C(=O)N(c2cc(C#CC(C)(C)C)sc2C(=O)O)C2CCC(O)CC2)CC1 (stereo not drawn) [VX-222, 5-(3,3-Dimethylbut-1-ynyl)-3-[(trans-4-hydroxycyclohexyl)-(4-trans methylcyclohexanecarbonyl)amino]thiophene-2-carboxylic acid]",Results VX-950 (synergy class),,Moderated synergy (50 uM^2%-100 uM^2%)
same,volume of synergy,listed as 1,90 uM^2% and 86 uM^2%

# Reference: patent US20130034522A1, “THERAPIES FOR TREATING HEPATITIS C VIRUS INFECTION” (priority 2010, published 2013)
